The results in this text go back to PubChem BioAssay (NCI).

SMILES strings stand for the structures.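 In this assay, cells in 96-well plates receive the compound at five concentrations for 48 hours. Endpoints are linearly interpolated between the surrounding concentrations. Abbreviation: GI50, concentration required for 50% inhibition of growth. TGI marks complete inhibition of growth.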

Test systems include 786-0 renal; A498 renal; A549 NSCLC; COLO 205 colon; HCC-2998 colon; HCT-15 colon; M14 melanoma; NCI-H522 lung; SNB-75 CNS.
Common to all, as to experiment: growth of human tumour cells (NCI), 48 h

On to `N#CC(C#N)=C1SCC(=O)CS1`, for which the TGI in the experiment with 786-0 renal, with A498 renal, in the experiment with A549 NSCLC, in the experiment on COLO 205 colon, in the experiment with HCC-2998 colon and in the experiment with HCT-15 colon was greater than 100 µM in each case. Further, the TGI in the experiment on M14 melanoma, in the experiment with NCI-H522 lung and with SNB-75 CNS was greater than 100 µM throughout.
On to `CC(C)CCc1c(Cl)nc(Cl)nc1Cl`, for which the TGI in the experiment with 786-0 renal was 46.3 µM; in the experiment with A549 NSCLC, 54.9 µM; with HCC-2998 colon, 64 µM; with HCT-15 colon it was greater than 100 µM; with M14 melanoma, 15.3 µM; with NCI-H522 lung, 9.89 µM. The compound also displayed a TGI in the experiment with SNB-75 CNS of 22.3 µM.
`CC1(C)C2C/C(=C\c3ccccc3)C(=O)C1C2` (stereo not given): the TGI with 786-0 renal, in the experiment on A498 renal, in the experiment on A549 NSCLC, with COLO 205 colon, with HCC-2998 colon and in the experiment on HCT-15 colon was greater than 100 µM each time. For the same compound, the values for the TGI with M14 melanoma, in the experiment on NCI-H522 lung and with SNB-75 CNS were greater than 100 µM, greater than 100 µM and 97.5 µM, respectively.
As to `Cn1c(=O)c(C(=O)NC(=O)OCc2ccccc2)cn(CCSCCOC(=O)NCCCCCCNC(=O)OCCSCCn2cc(C(=O)NC(=O)OCc3ccccc3)c(=O)n(C)c2=O)c1=O`, the TGI in the experiment with 786-0 renal, with A498 renal, in the experiment with A549 NSCLC, with COLO 205 colon, in the experiment on HCC-2998 colon and in the experiment with HCT-15 colon was greater than 100 µM throughout. The TGI in the experiment on M14 melanoma is greater than 100 µM; in the experiment with NCI-H522 lung, greater than 100 µM; in the experiment with SNB-75 CNS it was 48.9 µM.
For the compound `Cc1cccc2c1C/C(=C1\CCc3c(C)cccc31)C2=O`, the TGI in the experiment with 786-0 renal, with A498 renal, with A549 NSCLC, in the experiment with COLO 205 colon, in the experiment with HCC-2998 colon and with HCT-15 colon was greater than 100 µM each time. Also, the TGI in the experiment on M14 melanoma and in the experiment on SNB-75 CNS was greater than 100 µM throughout.
Consider `Cc1cc(=O)oc2cc(OCc3nc4ccccc4c(=O)[nH]3)ccc12`, for which the TGI in the experiment with 786-0 renal, in the experiment with A498 renal, in the experiment on A549 NSCLC, in the experiment on COLO 205 colon, in the experiment on HCC-2998 colon and with HCT-15 colon was greater than 100 µM throughout. Further, the TGI with M14 melanoma, in the experiment with NCI-H522 lung and in the experiment with SNB-75 CNS was greater than 100 µM in each case.
As to `CCOc1ccccc1NC(=O)C1=C(C)NC(C)=C(C(=O)Nc2ccccc2OCC)C1c1ccc(NC(C)=O)cc1`, the TGI in the experiment on 786-0 renal is greater than 100 µM; in the experiment with A498 renal it was 88.9 µM; in the experiment with A549 NSCLC, greater than 100 µM; with COLO 205 colon it was 41.1 µM; in the experiment on HCC-2998 colon it was 35.7 µM; with M14 melanoma, greater than 100 µM. Moreover, the TGI was determined as 23.6 µM in the experiment with NCI-H522 lung and 65.6 µM in the experiment on SNB-75 CNS.
Take `Cc1cccc2c1C(=O)OC2(C)c1cccc2ccccc12` (stereo not given): the TGI in the experiment with 786-0 renal was greater than 100 µM; with A549 NSCLC, greater than 100 µM; with HCC-2998 colon, 50.9 µM; in the experiment on HCT-15 colon, greater than 100 µM; with M14 melanoma, 40.7 µM; with NCI-H522 lung, 40.4 µM. Besides, in the experiment with SNB-75 CNS, the TGI came to 87.7 µM.
As to `C/C(=C\CC[C@]1(C)OC(C)(C)OC1CC/C(C)=C/CO[Si](c1ccccc1)(c1ccccc1)C(C)(C)C)CC/C=C/CO[Si](C)(C)C(C)(C)C` (stereo not given in full), the TGI in the experiment with 786-0 renal, in the experiment on A498 renal, in the experiment with A549 NSCLC, in the experiment on HCC-2998 colon, in the experiment with HCT-15 colon and with M14 melanoma was greater than 100 µM throughout. The TGI in the experiment with NCI-H522 lung and in the experiment with SNB-75 CNS was greater than 100 µM throughout.
For `c1ccc(SC(CCCCOC2CCCCO2)Sc2ccccc2)cc1` (stereo not given), the TGI in the experiment on 786-0 renal, with A498 renal, with A549 NSCLC, in the experiment on COLO 205 colon, in the experiment with HCC-2998 colon and in the experiment with HCT-15 colon was greater than 100 µM throughout. In addition, the results for the TGI in the experiment on M14 melanoma, with NCI-H522 lung and in the experiment on SNB-75 CNS were greater than 100 µM, 53.8 µM and greater than 100 µM, respectively.
`CC(=O)c1c[nH]cc1CO`: the TGI in the experiment with 786-0 renal, in the experiment on A498 renal, with A549 NSCLC, in the experiment with COLO 205 colon, with HCC-2998 colon and in the experiment with HCT-15 colon was greater than 10 µM throughout. The TGI with M14 melanoma and with SNB-75 CNS was greater than 10 µM each time.
With `Cc1ccc(/C=C2\CCCC\C2=N\O)cc1`, the TGI with 786-0 renal, in the experiment with A498 renal, in the experiment with A549 NSCLC, in the experiment with COLO 205 colon, in the experiment with HCC-2998 colon and with HCT-15 colon was greater than 100 µM each time. Besides, the TGI with M14 melanoma was greater than 100 µM; in the experiment on SNB-75 CNS it was 81.3 µM.
`C[CH2][Sn]([CH2]C)([O]C(=O)c1cccc(F)c1)[O][Sn]([CH2]C)([CH2]C)[O]C(=O)c1cccc(F)c1`: the GI50 with 786-0 renal was 15.8 µM; with A498 renal, 16.5 µM; in the experiment with A549 NSCLC it was greater than 100 µM; in the experiment with COLO 205 colon, 18.3 µM; in the experiment on HCC-2998 colon, 76.1 µM; in the experiment with HCT-15 colon, 21 µM. For the same compound, the GI50 is 16.9 µM in the experiment on M14 melanoma, 1.32 µM in the experiment with NCI-H522 lung and 16.9 µM with SNB-75 CNS. For the same compound, the TGI was 29.3 µM in the experiment with 786-0 renal; 30.2 µM with A498 renal; greater than 100 µM with A549 NSCLC; 32.2 µM in the experiment with COLO 205 colon; greater than 100 µM in the experiment on HCC-2998 colon; 43.3 µM with HCT-15 colon. Also, the TGI stood at 31.3 µM in the experiment with M14 melanoma, 2.65 µM in the experiment with NCI-H522 lung and 31.9 µM in the experiment with SNB-75 CNS.
For the compound `CC1=Nn2c(nnc2-c2ccc(N)cc2)NC(C)(C)C1`, the TGI with 786-0 renal, in the experiment on A498 renal, in the experiment on A549 NSCLC, in the experiment on COLO 205 colon, in the experiment on HCC-2998 colon and in the experiment with HCT-15 colon was greater than 100 µM in each case. The TGI in the experiment with M14 melanoma and with NCI-H522 lung was greater than 100 µM each time.
